Measurements: BigSolDB 2.1

OC[C@@H](O)[C@@H](O[C@H]1O[C@H](CO)[C@@H](O)[C@H](O)[C@H]1O)[C@H](O)[C@@H](O)CO
solubility (mole fraction)
Conditions	298.15 K	303.15 K	308.15 K	313.15 K	318.15 K	323.15 K
in DMF	0.00761	0.00819	0.00922	0.0109	0.0128	0.0153
in ethanol	3.6e-05	4.4e-05	5.2e-05	6.2e-05	7.4e-05	9.4e-05
in isopropanol	1.9e-05	2.3e-05	2.7e-05	3e-05	3.8e-05	5.1e-05
in methanol	0.00029	0.000337	0.000393	0.000453	0.000552	0.000706
in water	0.0616	0.0671	0.0786	0.0972	0.111	0.125
